Measured values from PMC12843137, “Fine-Tuning Side Chain Substitutions: Impacts on the Lipophilicity–Solubility–Permeability Interplay in Macrocyclic Peptides” (Marine Drugs, 2025).
≈ marks a conversion by molar mass, not a printed value. Marks after values point to notes of the source that are not given here.

Assays:
[1] = tested on: PANC-1 cells; assay: CCK-8 antiproliferative assay, PANC-1; assay type: cell-based; details: Homo sapiens, CCK-8, 72 h, mean of three independent experiments
Experimental: The inhibitory activities against human pancreatic cancer PANC-1 cells of the synthesized compounds were evaluated by CCK-8 assay.
Human pancreatic cancer cell lines PANC-1, PATU8988T and BxPC3 were purchased from the Cancer Institute & Hospital of the Chinese Academy of Medical Sciences (Shanghai, China). All three cell lines were cultured in RPMI-DMEM medium containing 10% fetal bovine serum, cultured at a constant temperature of 37 °C in a humidified incubator with 5% CO2.
Pancreatic cancer cells are seeded into 96-well plates. After a proliferation time of 16 h, different concentrations of compounds are added into the corresponding wells and incubated for 72 h. 10 μL of CCK-8 solution is added into each well and incubated for 1–4 h at 37 °C. Shake the plates and read the OD value of each well at 450 nm on a microplate reader.

[2] = Kinetic solubility in PBS pH 7.4; assay type: physicochemical; details: PBS pH 7.4, 25 °C; for solubility at 2 h: sodium phosphate buffer (PBS), 25 °C, pH 7.4, aqueous buffer, kinetic from dmso stock
Experimental: (§1) One explanation for the high IC50 values (i.e., low activity) of the new compounds is their potential poor solubility in aqueous solution or inadequate lipophilicity. To investigate this hypothesis, we determined kinetic solubility in […] phosphate buffer at pH 7.4 (Table 1). […] The remaining two compounds, BE and 29, show low solubilities (<0.1 μM). […] Additionally, since approximately 95% of drugs are ionizable, assessment of lipophilicity at pH 7.4 (log D7.4) is essential during the initial phases of drug discovery. In this study, we employ the shake-flask method to evaluate this property. […] Because lipophilicity directly reflects compound–membrane interaction, the activity of these compounds against PANC-1 cells likely stems from their interaction with the cell membrane.
Solubility is determined in 100 mM sodium phosphate buffer (PBS), pH 7.4. The stock solutions of test compound and control compound progesterone are prepared in DMSO at a concentration of 10 mM. 30 µL of working solutions of each sample is placed in order into their proper 96-well rack. 970 µL of PBS pH 7.4 is added into each vial of the cap-less Solubility Sample plate. The assay is performed in duplicate. Add one stir stick to each vial and seal using a molded PTFE/Silicone plug. Then the Solubility Sample plate is transferred to the Eppendorf Thermomixer Comfort plate shaker and shaken at 25 °C at 1100 RPM for 2 h. After completion of the 2 h, plugs are removed and the stir sticks are removed using a big magnet, the samples from the Solubility Sample plate are transferred into the filter plate. Using the Vacuum Manifold, all the samples are filtered. Aliquot of 5 µL is taken from the filtrate, followed by addition of 5 µL DMSO and 490 µL of a mixture of H2O and acetonitrile (1:1 in v/v). 200 μL of diluent is transferred to a new 96-well plate for LC-MS/MS analysis (see SI Bioanalytical Method for Solubility Measurement). The dilution factor is changed according to the solubility values and the LC-MS signal response.
MRM) / -4500 v (negative MRM). […]
13. Bioanalytical Method for Solubility Measurement
MS analysis: Triple Quad TM 5500 instrument from AB Inc (Canada) with an ESI interface
Injection volume: 1 μL, 3 μL, 5 μL or 10 μL
Column: ACQUITY UPLC BEH C18 (2.1 × 50 mmI.D. S-1.7 μm, 12 nm) Column
Mobile phase: 0.1% Ammonium hydroxide solution in water (A) and 0.1% Ammonium hydroxide solution
Column: XSelect Hss T3 2.5μm (2.1 × 50 mm) Column XP
Mobile phase: 0.1% formic acid in water (A) and 0.1% formic acid in acetonitrile (B)

[3] = log D7.4 by shake-flask method (1-octanol/PBS); assay type: physicochemical; details: 1-octanol/PBS, pH 7.4, 1-Octanol/PBS pH 7.4, shake-flask
Experimental: as §1
The basic solution is titrated with the acidic solution to achieve pH 7.4, with the pH verified and adjusted to 7.4 ± 0.1 on the experiment day. Saturated 1-octanol and PBS (pH 7.4) are also prepared. The stock solutions of test compounds and control compound progesterone are prepared in DMSO at a concentration of 10 mM (0.666 mM: compound 39). The detailed procedure for log D determinations can be found in the SI. […]
4. Procedure for log D determinations […]
µL of phosphate buffer saturated 1-octanol to get a concentration of 300 µM working solution. 20 µL of 300 µM compound solution is placed in order into their proper 96-well rack followed by the addition of 980 µL of 1-octanol saturated phosphate buffer. One stir stick is added to each vial and vials are sealed molded PTFE/Silicone plugs. Then the log D plate is transferred to the Eppendorf Thermomixer Comfort plate shaker and shaken at 25°C at 1,100 RPM for 1 h. The assay is performed in duplicate. After completion of 1 h, the stir sticks are removed using a big magnet. The samples are then centrifuged at 25°C at 20,000 g for 20 minutes to separate the phases, and syringe is used to remove the lower (buffer) phases to the empty tubes. Then the buffer phase is diluted with the same volume of acetonitrile/ultrapure water (50%/50%) for LC-MS/MS analysis. 300 µM working solution is diluted with acetonitrile/ultrapure water (50%/50%) to achieve a concentration of 3 µM. Then the 3 µM solution is diluted to 0.3 µM to get the total samples by adding 4 volumes of acetonitrile/ultrapure water (50%/50%) and 5 volumes of 1-octanol saturated Phosphate Buffer for LC-MS/MS analysis. […]
test compounds and control compound is placed in order into their 2.0 mL deep well plate, 500 µL of […]
followed by the addition of 500 µL of saturated PBS (pH 7.4). Seal the plate using a Silicone sealing mat.
Then the log D plate is transferred to the Eppendorf Thermomixer Comfort plate shaker and shaken at 25°C at 2,000 RPM for 2 h. After completion of 2 h, the samples are then centrifuged at 25°C at 3,220 g for 30 minutes to separate the phases, and pipette are used to remove the upper (1-octanol) and lower (buffer) phases to the empty tubes, respectively. Aliquots of 50 µL are taken from upper phases followed by addition of 450 µL of acetonitrile (containing internal standards (IS, 200 nM labetalol, 100 nM tolbutamide and 100 nM ketoprofen)). Mix with a pipette, and then aliquots of 50 µL are taken from the diluent followed by addition of 450 µL of acetonitrile (containing internal standards (IS, 200 nM labetalol, 100 nM tolbutamide and 100 nM ketoprofen)). […]

Compound `C[C@@H]1C(=O)[C@](C)(O)C(=O)NCC(=O)N[C@H](CN2CCN(C)CC2)/C=C/C(=O)N(C)CC(=O)O[C@H]1CCCCCc1cn(CCCCCCCNc2cccc3c2CN(C2CCC(=O)NC2=O)C3=O)nn1` (some centres unmarked) [Compound 40] has an IC50 [1] greater than 100 µM, a solubility at 2 h [2] of 259 µM (≈ 252 µg/mL) and a logD [3] of 0.93.

In the case of `CCCCOc1ccc(-c2ccc(-c3ccc(Cn4cc(CCCCC[C@H]5OC(=O)CN(C)C(=O)/C=C/[C@@H](CN6CCN(C)CC6)NC(=O)CNC(=O)[C@@](C)(O)C(=O)[C@H]5C)nn4)cc3)cc2)cc1` [Compound 29], the IC50 [1] is reported as greater than 100 µM, the Solubility ([2]; 2 h) is reported as <0.063 * µM and the solubility at 2 h [2] is reported as less than 0.1 µM. It also gave a logD [3] of 3.87.

`CCCCCCCCCCCCCC1OC(=O)CN(C)C(=O)C=CC(CN2CCN(C)CC2)NC(=O)CNC(=O)C(C)(O)C(=O)C1C` (centres unmarked) [BE-NMP] showed a solubility at 2 h [2] of 210 µM (≈ 139 µg/mL) and a logD [3] greater than 5.

With `CC1C(=O)C(C)(O)C(=O)NCC(=O)NC(CN2CCN(C)CC2)C=CC(=O)N(C)CC(=O)OC1CCCCc1cn(CCCCCCCCNC(=N)N)nn1` (centres unmarked) [Compound 31] the IC50 [1] was greater than 100 µM and the solubility at 2 h [2] was 268 µM (≈ 207 µg/mL).
